{"source": "paper PMC3112249", "about": "(Cancer chemotherapy and pharmacology, 2011)", "key": {"[1]": {"test_system": "HIV-associated Kaposi's sarcoma", "experiment": "Objective response, progression-free survival and survival on paclitaxel", "assay_type": "in vivo, human"}, "[2]": {"details": "107 male patients, paclitaxel 100 mg/m^2 intravenously over 3 hours every 2 weeks, 77% received protease inhibitors; cited from earlier work"}, "[3]": {"assay_type": "in vivo, human", "details": "paclitaxel 100 mg/m^2 IV over 3 h, cycle 1; patients taking protease inhibitors"}, "[4]": {"details": "cited from earlier work"}, "[5]": {"details": "20 evaluable patients, no prior paclitaxel, 100 mg/m^2 IV every 14 days"}}}
{"smiles": "CC(=O)O[C@H]1C(=O)[C@@]2(C)[C@H]([C@H](OC(=O)c3ccccc3)[C@]3(O)C[C@H](OC(=O)[C@H](O)[C@@H](NC(=O)c4ccccc4)c4ccccc4)C(C)=C1C3(C)C)[C@]1(OC(C)=O)CO[C@@H]1C[C@@H]2O", "note": "[Paclitaxel]", "values": [{"measurement": "best response: partial response, patients", "setting": "[1]; [5]", "result": 30, "unit": "%"}, {"measurement": "best response: progressive disease, patients", "setting": "[1]; [5]", "result": 10, "unit": "%"}, {"measurement": "best response: stable disease (SD), patients", "setting": "[1]; [5]", "result": 50, "unit": "%"}, {"measurement": "objective response, patients", "setting": "[1]; 20 patients assessable for response", "result": 30, "unit": "%"}, {"measurement": "three year survival rate", "setting": "[1]; 20 patients, no prior paclitaxel", "result": 67, "unit": "%"}, {"measurement": "median progression free survival", "setting": "[1]; 20 patients, no prior paclitaxel, 100 mg/m^2 IV every 14 days", "result": 7.8, "unit": "months"}, {"measurement": "median overall survival", "setting": "[1]; 20 patients, no prior paclitaxel, median follow-up of 50 months in the 13 surviving patients", "result": "had not been reached"}, {"measurement": "differences in the incidence or severity of toxicity, patients receiving protease inhibitors compared to those who did not", "setting": "[2]", "result": "No differences"}, {"measurement": "duration spent at a paclitaxel concentration > 0.05 μM", "setting": "[3]", "result": "19.0 (3.0–27.8) hr"}, {"measurement": "treatment-related infection of grade 3 or higher, patients", "setting": "20 patients, paclitaxel as first line therapy", "result": 15, "unit": "%"}, {"measurement": "Infection Grade 3, patients no. (%)", "setting": "PI (n=15)", "result": "3 (20%)"}, {"measurement": "Abdominal cramps Grade 3, patients no. (%)", "setting": "human, in vivo", "result": "1 (7%)"}, {"measurement": "Anemia Grade 3, patients no. (%)", "setting": "human, in vivo", "result": "2 (13%)"}, {"measurement": "Anemia Grade 4, patients no. (%)", "setting": "human, in vivo", "result": "1 (7%)"}, {"measurement": "Cardiac toxicity Grade 4, patients no. (%)", "setting": "human, in vivo", "result": "1 (5%)"}, {"measurement": "Eye irritation Grade 3, patients no. (%)", "setting": "human, in vivo", "result": "1 (7%)"}, {"measurement": "Fatigue Grade 3, patients no. (%)", "setting": "human, in vivo", "result": "2 (13%)"}, {"measurement": "GU toxicity Grade 3, patients no. (%)", "setting": "human, in vivo", "result": "1 (7%)"}, {"measurement": "Granulocytopenia Grade 3, patients no. (%)", "setting": "human, in vivo", "result": "3 (20%)"}, {"measurement": "Ileus Grade 4, patients no. (%)", "setting": "human, in vivo", "result": "1 (7%)"}, {"measurement": "Leukopenia Grade 4, patients no. (%)", "setting": "human, in vivo", "result": "1 (20%)"}, {"measurement": "Liver toxicity Grade 3, patients no. (%)", "setting": "human, in vivo", "result": "1 (7%)"}, {"measurement": "Liver toxicity Grade 4, patients no. (%)", "setting": "human, in vivo", "result": "1 (7%)"}, {"measurement": "Metabolic toxicity Grade 3, patients no. (%)", "setting": "human, in vivo", "result": "1 (7%)"}, {"measurement": "Metabolic toxicity Grade 4, patients no. (%)", "setting": "human, in vivo", "result": "1 (7%)"}, {"measurement": "Neuro-motor toxicity Grade 3, patients no. (%)", "setting": "human, in vivo", "result": "1 (7%)"}, {"measurement": "Pulmonary toxicity Grade 3, patients no. (%)", "setting": "human, in vivo", "result": "1 (7%)"}, {"measurement": "Pulmonary toxicity Grade 4, patients no. (%)", "setting": "human, in vivo", "result": "1 (20%)"}, {"measurement": "Skin toxicity Grade 3, patients no. (%)", "setting": "human, in vivo", "result": "1 (20%)"}, {"measurement": "Thrombocytopenia Grade 4, patients no. (%)", "setting": "human, in vivo", "result": "1 (7%)"}, {"measurement": "WORST DEGREE of toxicity Grade 3, patients no. (%)", "setting": "human, in vivo", "result": "7 (47%)"}, {"measurement": "treatment-related anemia of grade 3 or higher, patients", "setting": "human, in vivo", "result": 15, "unit": "%"}, {"measurement": "treatment-related granulocytopenia of grade 3 or higher, patients", "setting": "human, in vivo", "result": 40, "unit": "%"}]}
{"smiles": "COc1cccc2c1C(=O)c1c(O)c3c(c(O)c1C2=O)C[C@@](O)(C(=O)CO)C[C@@H]3O[C@H]1C[C@H](N)[C@H](O)[C@H](C)O1", "note": "[doxorubicin]", "values": [{"measurement": "effects on clearance", "setting": "[4]; human, in vivo", "result": "No significant effects"}]}
{"smiles": "O=P1(N(CCCl)CCCl)NCCCO1", "note": "(centres unmarked) [cyclophosphamide]", "values": [{"measurement": "clearance reduced compared to historical controls", "setting": "[4]; 29 patients receiving CHOP chemotherapy with HAART", "result": 1.5, "unit": "fold"}]}
